Measured values published in patent publication US9486430B2, “Treatment of neurodegenerative disease” (priority 2010, dated 2016).

Assays:
[1] = tested on: patient with Parkinson's Disease; assay: Tolerability of other drugs and supplements in the Parkinson's Disease patient
From the text: Patients on the anticoagulant warfarin are expected to have a reading between 2 and 3, with three being the least coagulated.

patients = settings: some patients; cited from earlier work
[2] = carbidopa with levodopa; cited from earlier work
[3] = tested on: monoamine oxidase A (MAO-A), MAO-B; settings: rat brain; cited from earlier work
healthy volunteers = settings: cited from earlier work; for adverse effects in healthy volunteers: up to 5 g (5000 mg per day)
[4] = tested on: amyloid plaques in mouse brain; settings: dietary supplementation, transgenic model of Alzheimer's Disease; cited from earlier work
[5] = International Normalized Ratio (INR) anticoagulation test in the Parkinson's Disease patient; format: in vivo, human; settings: for INR: ref. range 0.8-1.2
From the text: (§1) As described in detail below, the parameters used to measure these findings were basic observations of speech, gait, overall function and tremor before and after administering t-RES over a period of months using the author's Tremor Rating Scale (TRS) in addition to the UPDRS (Fahn, et al., Recent Developments in Parkinson's Disease, 1989). […] The International Normalized Ratio is a measure of clotting speed in the blood used especially as an indicator of Warfarin levels in the blood in patients with Atrial Fibrillation who need reduced clotting probability, to prevent strokes and pulmonary embolisms—but not so reduced as to increase the chances of hemorrhage, especially from trauma. The INR in a normal person ranges from 0.8 to 1.2 in an A-Fib patient the INR should be maintained between 2.0 and 3.0 (Avery, et al., Clin. Pharmacol. Ther., 2011).

[6] = Kidney function test in the Parkinson's Disease patient; format: in vivo, human; settings: patient on t-RES; data not shown
[7] = tested on: patient with stage four idiopathic Parkinson's Disease; assay: Observation of a stage four Parkinson's Disease patient on t-RES with SINEMET (Tremor Rating Scale, UPDRS); format: in vivo, human
From the text: as §1
In a particular embodiment, the effect of t-RES on a patient with stage four idiopathic Parkinson's Disease was observed. The patient was followed closely for fourteen months while receiving t-RES. t-RES was administered daily and changes in speech, handwriting, gait, leg movement, and dyskinesias were observed. […] Handwriting samples were taken before and after taking t-RES.
Starting dose of ½ pill 3 times/day SINEMET® 25/100 and 4 pills/day SINEMET® CR 25/100. Doses were given every four hours starting at 7 am.
Eleven months into the study, patient was taking 500 mg t-RES/day, considered the lowest mega-dose, plus the added 100 mg general polyphenols which are mixed into each 125 mg t-RES capsule.
This was achieved using a scale devised by the inventor, with three states: tremor, no dyskinesia (T, ND=0); non-tremor, no dyskinesia (NT, ND=1); and dyskinesia, no tremor (D, NT=2). The patient's state was recorded every half hour from 7 am to 10 pm by the author and caregivers on all days practicable.
Daily numbers from the inventor's 0-2 Tremor Rating Scale (TRS) scale were then tallied and entered into the Unified Parkinson's Disease Rating Scale (UPDRS) for comparison.
The doses of t-RES, SINEMET® and other supplements were also noted, with adjustments being made as necessary. The results were then examined for overall changes observed when the t-RES dose was increased every few months as shown in FIG. 2.

[8] = mice; cited from earlier work

Q: With `C#CCN[C@@H]1CCc2ccccc21` [rasagiline] as the molecule, how does the “tolerability in the patient” value ([1]; human, in vivo) read?
A: neither was tolerated

Q: For `C#CCN(C)[C@H](C)Cc1ccccc1` [deprenyl], which extension of lifespan (patients) is on record?
A: up to 10 years

Q: For `C[C@@](Cc1ccc(O)c(O)c1)(NN)C(=O)O` [Carbidopa, carbidopa], which “reduction of the amount of levodopa required to produce a given response” value [2] is on record?
A: about 75%

Q: What does the source list for `Oc1ccc(/C=C/c2cc(O)cc(O)c2)cc1` [t-RES, 3,5,4′-trihydroxy-trans-stilbene]?
A: inhibition of MAO-A compared with MAO-B [3]: slightly more than MAO-B; adverse effects in healthy volunteers (healthy volunteers): no adverse effects; amyloid plaques in mouse brain [4]: reduce the number of amyloid plaques; INR ([5]; 250 mg t-Res + 81 mg/day aspirin, Oct. 26, 2010): 1; INR score (blood coagulation) ([5]; 500 mg followed by 625 mg t-RES, eight and 12 months into the study, normal range 0.8-1.2): 1; INR ([5]; 500 mg t-Res, Mar. 14, 2011): 1.0; INR ([5]; 625 mg t-Res, Jul. 6, 2011): 1.0; Kidney function [6]: within the normal range; Total Levodopa per day ([7]; 14 months post t-RES (625 mg/day), September 2011, 550 mg before t-RES): day = 500 mg max; tremors and dyskinesias, share of the day ([7]; UPDRS ratings, t-RES plus SINEMET, FIG. 2, rarely over): ≤ 25 % of the day; patient's "on" time, share of the day ([7]; UPDRS-based, t-RES plus SINEMET, FIG. 2): 75 % of the day; dyskinesias on t-RES dose increase ([7]; each increase of t-RES by 125 mg/day, with SINEMET, FIG. 2, FIG. 3): dyskinesias increased; need for SINEMET per day after starting t-RES ([7]; first few days of t-RES, from 1½ tablets per day (150 mg levodopa) to one tablet per day): 100 mg levodopa; cognition and speech ([7]; following first administration of t-RES (125 mg capsule)): overnight improvement in cognition and speech; hallucinations ([7]; soon after beginning t-RES): completely eliminated on most days

Q: With `Oc1ccc(C=Cc2cc(O)cc(O)c2)cc1` [resveratrol, 3,5,4′-trihydroxy-stilbene] as the molecule, how does the reported adverse events (healthy volunteers; 2000 mg twice daily, two-week study, eight healthy adults) read?
A: minor diarrhea

Q: What about the “adverse effects in healthy volunteers” value (healthy volunteers) of the same molecule?
A: no adverse effects

Q: With `Cc1ccc(NC(=O)c2ccc(CN3CCN(C)CC3)cc2)cc1Nc1nccc(-c2cccnc2)n1` [imatinib] as the molecule, how does the “crossing of the blood-brain barrier” value [8] read?
A: not able to cross the blood-brain barrier

Q: For `N[C@@H](CCC(=O)N[C@@H](CS)C(=O)NCC(=O)O)C(=O)O` [glutathione], which “symptoms on reducing glutathione” value ([7]; glutathione reduced while on t-RES and SINEMET) is on record?
A: worsening of symptoms

Q: With `C#CCN(C)[C@H](C)Cc1ccccc1` [selegiline] as the molecule, how does the “tolerability in the patient” value ([1]; therapy in conjunction with SINEMET) read?
A: neither was tolerated
